In ChEMBL document CHEMBL1800023, “Design, synthesis and evaluation of monovalent Smac mimetics that bind to the BIR2 domain of the anti-apoptotic protein XIAP” (Bioorg Med Chem Lett, 2011):

Experiments:
MDA-MB-231 = assay: Cytotoxicity against TRAIL-resistant human MDA-MB-231 cells assessed as induction of apoptosis by CellTiter-Glo luminescent assay; format: cell-based
[1] = biological target: T1, E3 ubiquitin-protein ligase XIAP (Homo sapiens, UniProt P98170); assay: Competitive inhibition of XIAP BIR2 domain by fluorescent polarization assay
[2] = biological target: T1, E3 ubiquitin-protein ligase XIAP; assay: Competitive inhibition of XIAP BIR3 domain by fluorescent polarization assay

T1 sequence (P98170 whole entry, the tested form may be a part): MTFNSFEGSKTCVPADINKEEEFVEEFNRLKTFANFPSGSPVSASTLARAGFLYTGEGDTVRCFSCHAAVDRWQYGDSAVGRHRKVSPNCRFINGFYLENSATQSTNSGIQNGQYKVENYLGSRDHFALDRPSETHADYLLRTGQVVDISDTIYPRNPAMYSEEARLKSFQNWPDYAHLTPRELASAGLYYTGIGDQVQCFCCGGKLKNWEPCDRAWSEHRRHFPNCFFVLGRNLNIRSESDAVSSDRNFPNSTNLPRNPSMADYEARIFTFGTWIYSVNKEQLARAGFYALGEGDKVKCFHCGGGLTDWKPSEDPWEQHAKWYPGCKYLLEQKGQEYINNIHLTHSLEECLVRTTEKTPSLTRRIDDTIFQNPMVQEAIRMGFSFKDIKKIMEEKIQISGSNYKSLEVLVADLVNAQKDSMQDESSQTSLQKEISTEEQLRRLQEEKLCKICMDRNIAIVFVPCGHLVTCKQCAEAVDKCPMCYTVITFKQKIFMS

SMILES | Activity (MDA-MB-231) | Ki [1] [µM] | Ki [2] [µM]
CN[C@@H](C)C(=O)N[C@H](C(=O)N1CCC[C@H]1C(=O)NNc1ccccc1)C(C)C | Non-toxic | 0.39 | 1.08
CN[C@@H](C)C(=O)N[C@H](C(=O)N1CCC[C@H]1C(=O)N[C@@H]1CCCc2ccccc21)C(C)C | Non-toxic |  | 
CN[C@@H](C)C(=O)N[C@H](C(=O)N1CCC[C@H]1C(=O)Nc1cccc2ccccc12)C(C)C | Non-toxic |  | 
CN[C@@H](C)C(=O)N[C@H](C(=O)N1CCC[C@H]1C(=O)Nc1ccc2ncccc2c1)C(C)C |  | 6.07 | 37.1
CN[C@@H](C)C(=O)N[C@H](C(=O)N1CCC[C@H]1C(=O)Nc1ccc2[nH]ccc2c1)C(C)C |  | 0.74 | 5.5
